Test results as given in paper PMC4588877, “Guanine nucleotide exchange factor 2 for Rab5 proteins coordinated with GLUP6/GEF regulates the intracellular transport of the proglutelin from the Golgi apparatus to the protein storage vacuole in rice endosperm” (Journal of Experimental Botany, 2015).

Legend:
Rab5b = biological target: T1, Rab5b (Oryza sativa, UniProt Q10RN9); test: GDP/GMP-PNP exchange, Trp intrinsic fluorescence (ex […] nm, em […] nm); type: binding; settings: 1 µM GST-Rab preloaded with GDP; 0.1 mM GMP-PNP; GST-GLUP6/GEF or GST-Rab5-GEF2 0-1 µM as exchange factor; 20 mM Tris-HCl pH 8.0, 150 mM NaCl, 0.5 mM MgCl2
T1 construct: gene Os03g0151900; GST fusion (pGEX 4T-1), E. coli BL21 (DE3); tag kept
T1 sequence (Q10RN9 1-199): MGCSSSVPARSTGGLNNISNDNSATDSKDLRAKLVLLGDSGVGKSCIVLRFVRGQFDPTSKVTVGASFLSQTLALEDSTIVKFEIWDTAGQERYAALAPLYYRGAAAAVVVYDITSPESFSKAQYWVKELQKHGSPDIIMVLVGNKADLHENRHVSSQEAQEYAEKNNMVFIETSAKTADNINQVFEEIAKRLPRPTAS

GLUP4/Rab5a = biological target: T2, GLUP4/Rab5a (Oryza sativa, UniProt Q0ILQ6); test: as above; type: binding; settings: 1 µM GST-Rab preloaded with GDP; 0.1 mM GMP-PNP; GST-Rab5-GEF2 0-1 µM as exchange factor; 20 mM Tris-HCl pH 8.0, 150 mM NaCl, 0.5 mM MgCl2
T2 construct: GST fusion (pGEX 4T-1), E. coli BL21 (DE3); tag kept
T2 sequence (Q0ILQ6 1-203): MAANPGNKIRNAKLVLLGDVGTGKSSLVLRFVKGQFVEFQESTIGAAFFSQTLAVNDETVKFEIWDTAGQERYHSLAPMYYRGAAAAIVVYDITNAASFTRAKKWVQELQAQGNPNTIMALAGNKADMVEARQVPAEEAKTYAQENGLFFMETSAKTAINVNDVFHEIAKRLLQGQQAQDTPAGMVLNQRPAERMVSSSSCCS

Rab5c = biological target: T3, Rab5c (Oryza sativa, UniProt Q75HA2); test: as above; type: binding; settings: 1 µM GST-Rab preloaded with GDP; 0.1 mM GMP-PNP; GST-GLUP6/GEF or GST-Rab5-GEF2 0-1 µM as exchange factor; 20 mM Tris-HCl pH 8.0, 150 mM NaCl, 0.5 mM MgCl2
T3 construct: gene Os03g0666500; GST fusion (pGEX 4T-1), E. coli BL21 (DE3); tag kept
T3 sequence (Q75HA2 1-203): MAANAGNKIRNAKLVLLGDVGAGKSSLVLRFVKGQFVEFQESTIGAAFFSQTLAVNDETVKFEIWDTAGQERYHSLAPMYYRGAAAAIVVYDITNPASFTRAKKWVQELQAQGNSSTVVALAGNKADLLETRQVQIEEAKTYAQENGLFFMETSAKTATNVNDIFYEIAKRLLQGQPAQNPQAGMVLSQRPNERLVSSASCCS

GLUP4/Rab5a (rice) = GLUP4/Rab5a (rice) (UniProt Q0ILQ6); test: SPR; BIACORE J; GLUP4/Rab5a immobilised on Sensor Chip CM5; Rab5-GEF2 or GLUP6/GEF (1.5, 3.5, 5, 6.5, 10.5 μM) applied for 120 s at 30 μl/min in 10 mM HEPES-NaOH pH 7.4, 0.15 M NaCl, 0.5 mM MgCl2, 10 mM GDP, 0.1% Triton X-100; apparent KD from association and dissociation curves

Row | Kd (GLUP4/Rab5a (rice)) [µM] | Molecule | GDP/GMP-PNP exchange, Trp intrinsic fluorescence (ex 298 nm, em 340 nm) (Rab5b) | GDP/GMP-PNP exchange, Trp intrinsic fluorescence (ex 298 nm, em 340 nm) (GLUP4/Rab5a) | GDP/GMP-PNP exchange, Trp intrinsic fluorescence (ex 298 nm, em 340 nm) (Rab5c)
1 |  | Nc1nc2c(ncn2[C@@H]2O[C@H](COP(=O)(O)OP(=O)(O)NP(=O)(O)O)[C@@H](O)[C@H]2O)c(=O)[nH]1 [GMP-PNP] | Rab5b and Rab5c were activated by GLUP6/GEF in a dose-dependent manner | Rab5-GEF2 activated GLUP4/Rab5a, the plant-specific Rab5b, and Rab5c in a dose-dependent manner | Rab5b and Rab5c were activated by GLUP6/GEF in a dose-dependent manner
2 | 2.1 | GLUP6/GEF (natural protein) |  |  | 
3 | 1.7 | Rab5-GEF2 (natural protein) |  |  | 
